Data taken from patent US12552757B2, “NRF2-activating compound” (SENJU PHARMACEUTICAL CO., LTD., priority 2019, dated 2026).

Tests used:
NRF2 = test: Measurement 2 of Nrf2 activating action (reporter assay) in HCE-T/ARE-Luc cells; assay type: cell-based; details: 50% activation concentration, culture for 24 hours
Protocol: The NRF2 activating action of the compounds on cells was measured by a reporter gene assay. pGL4.37[luc2P/ARE/Hygro](Promega) was introduced into HCE-T cells using FuGENE HD. Cells that acquired drug resistance as a result of transduction were screened by culture in the presence of 50 μg/mL hygromycin, and a clone strain, HCE-T/ARE-Luc, was established.
HCE-T/ARE-Luc was cultured using DMEM/F12, 10 ng/mL hEGF, 5 μg/mL insulin, and 5% FBS. Phenol red-free DMEM/F12 was used as the assay medium.
HCE-T/ARE-Luc was seeded in a 96-well polystyrene microplate (FALCON) with 10000 cells per well. The cells were incubated in a CO: incubator at 37° C. for 16 hours to allow for cell adhesion. The test substance was dissolved in dimethylsulfoxide to prepare a solution at a concentration 1000 times higher than the test concentration. The test substance diluted 1000-fold in the assay medium was added, followed by culture for 24 hours. When measuring the activity of the reporter, the medium containing the test substance was removed, and then a new medium and a substrate of ONE-GloEX Luciferase Assay System (Promega) were added. The plate was shaken for 1 minute and then allowed to stand at ordinary temperature for 10 minutes, and luminescence was detected using the GloMax Discover System.
The 50% activation concentration of each test substance was calculated by creating a calibration curve between two concentrations across the luminescence intensity of 50%.

[1] = Measurement of metabolic stability in human liver microsomes; assay type: in vitro ADME; details: residual ratio of test compound after 30 minutes at 37° C. with human liver microsome, LC/MS/MS
Protocol: 1 mmol/L DMSO solutions of the compounds produced in the Examples were prepared. Each of the 1 mmol/L DMSO solutions was diluted with acetonitrile to 10 μmol/L, and then diluted with a 6.5 mmol/L Q-NADPH solution to 200 nmol/L. 50 μL of each solution was added to the reaction group and the non-reaction group. 50 μL of a 0.2 mg protein/mL human liver microsome (Mixed Gender, Pool of 50 livers; XenoTech, LLC) solution was added to the reaction group, followed by incubation at 37° C. for 30 minutes with shaking. After 400 μL of methanol was added to the non-reaction group, 50 μL of a 0.2 mg protein/mL human liver microsome solution was added to adjust the formulation. After incubation in the reaction group, 400 μL of methanol was added to stop the reaction. The samples of the reaction group and non-reaction group were allowed to stand at −20° C. for about 30 minutes, followed by centrifugation at 4° C. at 3000 rpm for about 10 minutes. The supernatant was analyzed using LC/MS/MS, and the residual ratio of the test compound was calculated from the peak area value of the test compound using the following formula. The measurement was carried out using the following devices: HPLC system: LC-20A-Series High Performance Liquid Chromatograph (Shimadzu Corporation) and mass spectrometer: API 4000 (AB Sciex Pte. Ltd.), or using equivalent devices. Residual ratio (%)=(peak area value of test compound in reaction group/peak area value of test compound in non-reaction group)×100 Results

[2] = target: T1, binding between NRF2 and KEAP1 (Homo sapiens, UniProt Q14145); test: Measurement 1 of Nrf2 activating action (binding assay): BRET assay of inhibition of the binding between NRF2 and KEAP1; details: 50% binding inhibitory concentration, NanoLuc-NRF2 / KEAP1-HaloTag cell lysates
T1 construct: expressed in transfected cells; host or cells: HCE-T cells; each protein was expressed separately, and the two cell lysates were mixed in the well
Protocol: Compounds 1 to 53 produced in the Examples were used as test substances.
The inhibitory activity of each compound on the binding between NRF2 and KEAP1 was measured by bioluminescence resonance energy transfer (BRET) assay. A plasmid having human NRF2 (Original Clone ID: ha01449s1) sequence fused with NanoLuc (19 kDa, Promega) at the N-terminal was transduced into HCE-T cells using FuGENE HD (Promega). 48 hours after transduction, the cell lysate was collected and used as an NRF2-expressing cell lysate. A plasmid having human KEAP1 (Original Clone ID: cs00328) sequence fused with HaloTag (33 kDa, Promega) at the C-terminal was transduced into HCE-T cells using FuGENE HD (Promega). After 24 hours, HaloTag Nano BRET 618 Ligand (Promega) was added to the medium. The cell lysate cultured for 24 hours after the addition was used as a KEAP1-expressing cell lysate.
The NRF2-expressing cell lysate and the KEAP1-expressing cell lysate were adjusted so that the luminescence and fluorescence intensities per well were constant. Tables 1 and 2 show the formulation of each reaction solution.
Each test substance at a concentration 100 times higher than the test concentration was dissolved in dimethylsulfoxide for adjustment. 49 μL of KEAP1 solution was added to a 96-well polystyrene microplate (FALCON) to which 1 μL of each test substance solution was added, followed by incubation for 15 minutes. Then, 50 μL of NRF2 solution was added to the above solution, followed by incubation for 1 hour. To measure the binding between NRF2 and KEAP1, NanoBRET Nano-Glo Substrate (Promega) diluted with Opti-Mem (Thermo Fisher Scientific) was added, followed by shaking for 30 seconds. Then, luminescence and fluorescence were measured using the GloMax Discover System (Promega). A 495-nm short pass filter and a 600-nm long pass filter were respectively used to measure donor and acceptor emission values. A value obtained by dividing the acceptor emission value by the donor emission value was regarded as BRET value. A BRET value when the compound was not added, and a BRET value when the KEAP1 solution was not added were respectively used as binding rates of 100% and 0%, and the binding rate when the compound was added was calculated. Further, using this binding rate, the 50% binding inhibitory activity concentration (IC50) was calculated from the following formula: IC50(M)=10^(LOG(A/B)×(50−C)/(D−C)+LOG(B)) • A: higher concentration out of 2 close concentrations across the inhibition rate of 50% • B: lower concentration out of 2 close concentrations across the inhibition rate of 50% • C: inhibition rate at B • D: inhibition rate at A

T1 sequence (Q14145 whole entry): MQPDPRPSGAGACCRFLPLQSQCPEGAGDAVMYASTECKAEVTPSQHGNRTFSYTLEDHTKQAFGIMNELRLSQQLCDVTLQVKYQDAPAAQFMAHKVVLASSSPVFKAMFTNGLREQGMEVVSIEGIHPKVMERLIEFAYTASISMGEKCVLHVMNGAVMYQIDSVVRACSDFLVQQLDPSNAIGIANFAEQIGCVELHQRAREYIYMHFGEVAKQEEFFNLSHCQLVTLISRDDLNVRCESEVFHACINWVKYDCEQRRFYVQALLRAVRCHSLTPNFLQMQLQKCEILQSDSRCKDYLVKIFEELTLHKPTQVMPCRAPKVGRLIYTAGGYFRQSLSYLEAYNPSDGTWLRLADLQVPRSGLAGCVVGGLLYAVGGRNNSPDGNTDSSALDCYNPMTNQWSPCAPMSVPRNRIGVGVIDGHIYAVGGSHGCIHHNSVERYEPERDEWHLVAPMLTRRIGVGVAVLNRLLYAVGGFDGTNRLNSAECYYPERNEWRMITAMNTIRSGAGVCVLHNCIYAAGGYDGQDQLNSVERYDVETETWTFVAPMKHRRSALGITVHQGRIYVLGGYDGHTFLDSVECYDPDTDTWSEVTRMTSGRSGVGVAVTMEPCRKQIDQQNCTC

Row | EC50 (NRF2) [nM] | Metabolic stability* [1] [%] | IC50 [2] [nM] | SMILES
1 | 9.19 | 37 | – | CC[C@@H]1CN(Cc2cc(C(c3ccc(C(C)=O)s3)C(C)C(=O)O)ccc2C)S(=O)(=O)c2ccccc2O1 (stereo partly drawn) [Compound 1, 3-(5-acetylthiophen-2-yl)-3-(3-{[(R)-4-ethyl-1,1-dioxide-3,4-dihydro-2H-benzo[b][1,4,5]oxathiazepin-2-yl]methyl}-4-methylphenyl)-2-methylpropanoic acid]
2 | 9 | 21 | – | CC[C@@H]1CN(Cc2cc(C(c3cc(C)c(C(C)=O)s3)C(C)C(=O)O)ccc2C)S(=O)(=O)c2ccccc2O1 (stereo partly drawn) [Compound 2, 3-(5-acetyl-4-methylthiophen-2-yl)-3-(3-{[(R)-4-ethyl-1,1-dioxide-3,4-dihydro-2H-benzo[b][1,4,5]oxathiazepin-2-yl]methyl}-4-methylphenyl)-2-methylpropanoic acid]
3 | 6.81 | 51 | – | CC[C@@H]1CN(Cc2cc(C(c3cc(C(C)=O)cs3)C(C)C(=O)O)ccc2C)S(=O)(=O)c2ccccc2O1 (stereo partly drawn) [Compound 3, 3-(4-acetylthiophen-2-yl)-3-(3-{[(R)-4-ethyl-1,1-dioxide-3,4-dihydro-2H-benzo[b][1,4,5]oxathiazepin-2-yl]methyl}-4-methylphenyl)-2-methylpropanoic acid]
4 | 7.17 | 48 | – | CC[C@@H]1CN(Cc2cc(C(c3cc(OC)c(C(C)=O)s3)C(C)(C)C(=O)O)ccc2C)S(=O)(=O)c2ccccc2O1 (stereo partly drawn) [Compound 4, 3-(5-acetyl-4-methoxythiophen-2-yl)-3-(3-{[(R)-4-ethyl-1,1-dioxide-3,4-dihydro-2H-benzo[b][1,4,5]oxathiazepin-2-yl]methyl}-4-methylphenyl)-2,2-dimethylpropanoic acid]
5 | 6.71 | 2 | – | CC(=O)c1ccc(C(c2ccc(C)c(CN3CC(CCOCc4ccccc4)Oc4ccccc4S3(=O)=O)c2)C(C)C(=O)O)s1 (stereo not drawn) [Compound 13, 3-(5-acetylthiophen-2-yl)-3-[3-({4-[2-(benzyloxy)ethyl]-1,1-dioxide-3,4-dihydro-2H-benzo[b][1,4,5]oxathiazepin-2-yl}methyl)-4-methylphenyl]-2-methylpropanoic acid]
6 | 3.57 | 51 | – | CC[C@@H]1CN(Cc2cc(C(c3ccc(C(C)=O)s3)C(C)C(=O)O)ccc2C)S(=O)(=O)c2cnccc2O1 (stereo partly drawn) [Compound 16, 3-(5-acetylthiophen-2-yl)-3-(3-{[(R)-4-ethyl-1,1-dioxide-3,4-dihydro-2H-pyrido[4,3-b][1,4,5]oxathiazepin-2-yl]methyl}-4-methylphenyl)-2-methylpropanoic acid]
7 | – | 65 | 3.3 | CC[C@@H]1CN(Cc2cc(C(CC(=O)O)c3nc(C)c(C(C)=O)s3)ccc2C)S(=O)(=O)c2ccccc2O1 (stereo partly drawn) [Compound 41, 3-(5-acetyl-4-methylthiazol-2-yl)-3-(3-[{(R)-4-ethyl-1,1-dioxide-3,4-dihydro-2H-benzo[b][1,4,5]oxathiazepin-2-yl]methyl}-4-methylphenyl) propanoic acid]
8 | 3.67 | 56 | – | CC[C@@H]1CN(Cc2cc(C(c3ccc(C(C)=O)s3)C(C)(C)C(=O)O)ccc2C)S(=O)(=O)c2cnccc2O1 (stereo partly drawn) [Compound 48, 3-(5-acetylthiophen-2-yl)-3-(3-{[(R)-4-ethyl-1,1-dioxide-3,4-dihydro-2H-pyrido[4,3-b][1,4,5]oxathiazepin-2-yl]methyl}-4-methylphenyl)-2,2-dimethylpropanoic acid]
9 | 7.76 | 44 | – | CC[C@@H]1CN(Cc2cc(C(c3cc(F)c(C(C)=O)s3)C(C)(C)C(=O)O)ccc2C)S(=O)(=O)c2cnccc2O1 (stereo partly drawn) [Compound 49, 3-(5-acetyl-4-fluorothiophen-2-yl)-3-(3-{[(R)-4-ethyl-1,1-dioxide-3,4-dihydro-2H-pyrido[4,3-b][1,4,5]oxathiazepin-2-yl]methyl}-4-methylphenyl)-2,2-dimethylpropanoic acid]
